This is an account of results in ChEMBL document CHEMBL4028801, “A multifactorial approach to hepatobiliary transporter assessment enables improved therapeutic compound development” (Toxicol Sci, 2013).

Where only a bound is given, the exact number is not on record here.

For data set [1], the target named is Bile salt export pump (Homo sapiens, UniProt O95342). As to the kind of experiment: Inhibition of human BSEP overexpressed in Sf9 cell membrane vesicles assessed as uptake of [3H]-taurocholate in presence of ATP measured after 15 to 20 mins by membrane vesicle transport assay. Type of data set: ADME, cell-based.
Bile salt export pump, sequence (O95342 whole entry): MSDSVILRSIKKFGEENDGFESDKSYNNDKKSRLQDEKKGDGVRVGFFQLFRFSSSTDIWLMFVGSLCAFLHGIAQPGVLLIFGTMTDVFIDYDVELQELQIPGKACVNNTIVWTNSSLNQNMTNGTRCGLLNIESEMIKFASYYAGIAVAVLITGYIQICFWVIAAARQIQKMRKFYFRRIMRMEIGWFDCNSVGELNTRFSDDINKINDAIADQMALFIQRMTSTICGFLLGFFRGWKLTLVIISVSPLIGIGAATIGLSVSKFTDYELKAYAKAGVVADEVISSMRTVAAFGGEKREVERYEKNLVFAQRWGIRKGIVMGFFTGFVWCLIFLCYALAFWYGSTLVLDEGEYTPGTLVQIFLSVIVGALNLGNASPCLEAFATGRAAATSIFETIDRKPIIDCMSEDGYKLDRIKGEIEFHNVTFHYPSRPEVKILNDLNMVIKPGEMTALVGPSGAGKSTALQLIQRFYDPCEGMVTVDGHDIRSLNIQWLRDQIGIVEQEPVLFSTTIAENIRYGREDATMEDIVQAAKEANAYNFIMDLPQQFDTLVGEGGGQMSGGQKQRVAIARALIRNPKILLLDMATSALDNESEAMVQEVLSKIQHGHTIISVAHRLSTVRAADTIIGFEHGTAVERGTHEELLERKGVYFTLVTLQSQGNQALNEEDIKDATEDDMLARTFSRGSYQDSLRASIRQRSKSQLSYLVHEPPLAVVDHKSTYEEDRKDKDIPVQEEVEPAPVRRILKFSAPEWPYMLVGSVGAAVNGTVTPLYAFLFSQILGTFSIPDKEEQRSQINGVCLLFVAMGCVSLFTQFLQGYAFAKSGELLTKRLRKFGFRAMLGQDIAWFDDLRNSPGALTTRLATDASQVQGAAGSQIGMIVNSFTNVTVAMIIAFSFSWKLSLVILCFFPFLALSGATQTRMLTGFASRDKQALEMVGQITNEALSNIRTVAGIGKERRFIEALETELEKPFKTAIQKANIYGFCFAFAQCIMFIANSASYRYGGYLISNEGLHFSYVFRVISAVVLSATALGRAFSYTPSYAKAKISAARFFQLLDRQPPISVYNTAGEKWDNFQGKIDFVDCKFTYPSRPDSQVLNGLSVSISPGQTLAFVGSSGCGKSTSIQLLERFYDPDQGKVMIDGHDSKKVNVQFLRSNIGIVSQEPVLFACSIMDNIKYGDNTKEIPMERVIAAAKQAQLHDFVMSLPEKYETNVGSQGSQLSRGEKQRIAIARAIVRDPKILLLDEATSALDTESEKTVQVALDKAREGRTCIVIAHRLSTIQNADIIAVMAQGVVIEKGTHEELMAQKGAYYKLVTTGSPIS
Data set [2] is described as follows: Ratio of drug concentration at steady state in human at 1200 mg administered orally BID up to 2800 mg/day after 12 hrs to IC50 for human BSEP overexpressed in Sf9 insect cells. The conditions noted are these: in vivo, po. Type of data set: ADME.
The target in data set [3] is T1, ATP-binding cassette sub-family C member 4 (Homo sapiens, UniProt O15439).
T1 sequence (O15439 whole entry): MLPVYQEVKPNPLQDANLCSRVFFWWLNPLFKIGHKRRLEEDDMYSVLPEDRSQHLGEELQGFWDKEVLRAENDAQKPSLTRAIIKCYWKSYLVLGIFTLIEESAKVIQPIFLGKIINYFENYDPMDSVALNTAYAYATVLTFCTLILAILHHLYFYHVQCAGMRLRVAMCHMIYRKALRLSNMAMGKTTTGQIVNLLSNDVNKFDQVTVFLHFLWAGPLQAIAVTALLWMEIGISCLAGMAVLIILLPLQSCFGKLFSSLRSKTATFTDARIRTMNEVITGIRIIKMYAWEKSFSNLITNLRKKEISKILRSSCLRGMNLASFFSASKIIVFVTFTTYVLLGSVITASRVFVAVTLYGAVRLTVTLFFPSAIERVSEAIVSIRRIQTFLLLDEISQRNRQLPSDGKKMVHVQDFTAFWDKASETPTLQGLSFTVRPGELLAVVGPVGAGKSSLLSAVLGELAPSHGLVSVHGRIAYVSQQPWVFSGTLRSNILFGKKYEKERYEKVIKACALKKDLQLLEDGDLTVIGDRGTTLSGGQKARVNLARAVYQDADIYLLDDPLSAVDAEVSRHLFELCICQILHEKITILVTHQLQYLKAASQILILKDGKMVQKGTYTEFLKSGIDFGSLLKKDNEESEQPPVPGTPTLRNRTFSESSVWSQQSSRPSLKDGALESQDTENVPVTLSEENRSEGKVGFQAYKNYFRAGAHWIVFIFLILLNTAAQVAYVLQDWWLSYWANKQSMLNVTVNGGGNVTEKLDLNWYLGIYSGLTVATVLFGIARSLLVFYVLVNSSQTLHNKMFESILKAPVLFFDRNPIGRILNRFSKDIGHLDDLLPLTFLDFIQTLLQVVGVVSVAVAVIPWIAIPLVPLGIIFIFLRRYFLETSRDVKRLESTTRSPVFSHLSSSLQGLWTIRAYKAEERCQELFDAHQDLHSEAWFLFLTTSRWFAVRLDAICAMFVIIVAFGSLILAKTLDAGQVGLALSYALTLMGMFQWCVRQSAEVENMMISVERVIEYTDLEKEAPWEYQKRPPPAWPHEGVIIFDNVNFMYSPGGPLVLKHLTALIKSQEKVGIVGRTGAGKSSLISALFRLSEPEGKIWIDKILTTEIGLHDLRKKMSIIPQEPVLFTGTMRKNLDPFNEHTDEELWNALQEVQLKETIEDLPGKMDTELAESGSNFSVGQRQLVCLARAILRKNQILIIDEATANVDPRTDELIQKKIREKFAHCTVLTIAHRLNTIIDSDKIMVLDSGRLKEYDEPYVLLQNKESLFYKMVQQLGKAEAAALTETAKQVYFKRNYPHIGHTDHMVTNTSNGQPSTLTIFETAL
Description: Inhibition of human MRP4 overexpressed in Sf9 cell membrane vesicles assessed as uptake of [3H]-estradiol-17beta-D-glucuronide in presence of ATP and GSH measured after 20 mins by membrane vesicle transport assay. It counts as ADME, cell-based.

Data set [4] deals with ATP-binding cassette sub-family C member 2 (Homo sapiens, UniProt Q92887). Description: Inhibition of human MRP2 overexpressed in Sf9 cell membrane vesicles assessed as uptake of [3H]-estradiol-17beta-D-glucuronide in presence of ATP and GSH measured after 20 mins by membrane vesicle transport assay.
ATP-binding cassette sub-family C member 2, sequence (Q92887 whole entry): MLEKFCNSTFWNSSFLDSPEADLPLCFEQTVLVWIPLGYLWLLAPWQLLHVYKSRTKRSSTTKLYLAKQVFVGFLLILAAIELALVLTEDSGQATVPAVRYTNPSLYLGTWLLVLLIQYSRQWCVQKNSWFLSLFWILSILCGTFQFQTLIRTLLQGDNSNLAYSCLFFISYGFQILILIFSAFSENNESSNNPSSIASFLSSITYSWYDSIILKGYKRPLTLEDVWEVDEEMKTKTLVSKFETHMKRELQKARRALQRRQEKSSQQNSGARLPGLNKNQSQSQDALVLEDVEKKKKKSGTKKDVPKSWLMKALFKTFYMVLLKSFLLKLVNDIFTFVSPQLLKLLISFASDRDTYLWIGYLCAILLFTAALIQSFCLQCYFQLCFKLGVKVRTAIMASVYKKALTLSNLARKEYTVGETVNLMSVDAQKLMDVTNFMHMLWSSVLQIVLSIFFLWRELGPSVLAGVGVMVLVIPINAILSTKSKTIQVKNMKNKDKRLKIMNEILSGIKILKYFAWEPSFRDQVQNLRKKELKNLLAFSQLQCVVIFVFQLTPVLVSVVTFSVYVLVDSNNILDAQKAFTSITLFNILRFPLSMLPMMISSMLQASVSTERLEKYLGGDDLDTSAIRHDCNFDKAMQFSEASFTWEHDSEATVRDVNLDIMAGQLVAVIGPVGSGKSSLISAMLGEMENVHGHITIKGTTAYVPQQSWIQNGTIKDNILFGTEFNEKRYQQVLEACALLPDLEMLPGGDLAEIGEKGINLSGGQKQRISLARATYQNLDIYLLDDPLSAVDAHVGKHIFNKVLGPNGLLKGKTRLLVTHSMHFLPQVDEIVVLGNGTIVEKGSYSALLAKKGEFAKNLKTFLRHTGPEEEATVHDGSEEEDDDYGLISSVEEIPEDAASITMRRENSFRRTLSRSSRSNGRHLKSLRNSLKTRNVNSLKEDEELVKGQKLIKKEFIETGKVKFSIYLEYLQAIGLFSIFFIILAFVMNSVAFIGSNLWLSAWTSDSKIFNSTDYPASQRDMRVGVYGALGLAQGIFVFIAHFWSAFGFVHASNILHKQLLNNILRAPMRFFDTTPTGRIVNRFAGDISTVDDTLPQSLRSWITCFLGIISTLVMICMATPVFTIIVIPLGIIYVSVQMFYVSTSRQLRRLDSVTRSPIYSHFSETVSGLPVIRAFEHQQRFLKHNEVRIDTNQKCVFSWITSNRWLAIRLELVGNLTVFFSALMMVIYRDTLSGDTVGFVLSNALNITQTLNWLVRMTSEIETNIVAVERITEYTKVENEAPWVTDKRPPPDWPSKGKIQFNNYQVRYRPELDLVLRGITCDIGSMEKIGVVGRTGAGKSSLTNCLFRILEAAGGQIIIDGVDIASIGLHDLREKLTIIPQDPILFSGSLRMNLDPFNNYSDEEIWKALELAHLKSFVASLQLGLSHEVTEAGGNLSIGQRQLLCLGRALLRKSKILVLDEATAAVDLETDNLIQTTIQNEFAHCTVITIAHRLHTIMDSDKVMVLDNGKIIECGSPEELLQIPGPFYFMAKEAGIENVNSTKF
A short description of data set [5]: AUC in human at 1200 mg administered orally BID up to 2800 mg/day after 12 hrs. Type of data set: ADME. More on the design: time < 12 hr, dose 1200 mg, route oral. The settings on record: in vivo, po.
For data set [6], the target named is ATP-binding cassette sub-family C member 3 (Homo sapiens, UniProt O15438). Description: Inhibition of human MRP3 overexpressed in Sf9 insect cell membrane vesicles assessed as uptake of [3H]-estradiol-17beta-D-glucuronide in presence of ATP and GSH measured after 10 mins by membrane vesicle transport assay. Type of data set: ADME, cell-based.
ATP-binding cassette sub-family C member 3, sequence (O15438 whole entry): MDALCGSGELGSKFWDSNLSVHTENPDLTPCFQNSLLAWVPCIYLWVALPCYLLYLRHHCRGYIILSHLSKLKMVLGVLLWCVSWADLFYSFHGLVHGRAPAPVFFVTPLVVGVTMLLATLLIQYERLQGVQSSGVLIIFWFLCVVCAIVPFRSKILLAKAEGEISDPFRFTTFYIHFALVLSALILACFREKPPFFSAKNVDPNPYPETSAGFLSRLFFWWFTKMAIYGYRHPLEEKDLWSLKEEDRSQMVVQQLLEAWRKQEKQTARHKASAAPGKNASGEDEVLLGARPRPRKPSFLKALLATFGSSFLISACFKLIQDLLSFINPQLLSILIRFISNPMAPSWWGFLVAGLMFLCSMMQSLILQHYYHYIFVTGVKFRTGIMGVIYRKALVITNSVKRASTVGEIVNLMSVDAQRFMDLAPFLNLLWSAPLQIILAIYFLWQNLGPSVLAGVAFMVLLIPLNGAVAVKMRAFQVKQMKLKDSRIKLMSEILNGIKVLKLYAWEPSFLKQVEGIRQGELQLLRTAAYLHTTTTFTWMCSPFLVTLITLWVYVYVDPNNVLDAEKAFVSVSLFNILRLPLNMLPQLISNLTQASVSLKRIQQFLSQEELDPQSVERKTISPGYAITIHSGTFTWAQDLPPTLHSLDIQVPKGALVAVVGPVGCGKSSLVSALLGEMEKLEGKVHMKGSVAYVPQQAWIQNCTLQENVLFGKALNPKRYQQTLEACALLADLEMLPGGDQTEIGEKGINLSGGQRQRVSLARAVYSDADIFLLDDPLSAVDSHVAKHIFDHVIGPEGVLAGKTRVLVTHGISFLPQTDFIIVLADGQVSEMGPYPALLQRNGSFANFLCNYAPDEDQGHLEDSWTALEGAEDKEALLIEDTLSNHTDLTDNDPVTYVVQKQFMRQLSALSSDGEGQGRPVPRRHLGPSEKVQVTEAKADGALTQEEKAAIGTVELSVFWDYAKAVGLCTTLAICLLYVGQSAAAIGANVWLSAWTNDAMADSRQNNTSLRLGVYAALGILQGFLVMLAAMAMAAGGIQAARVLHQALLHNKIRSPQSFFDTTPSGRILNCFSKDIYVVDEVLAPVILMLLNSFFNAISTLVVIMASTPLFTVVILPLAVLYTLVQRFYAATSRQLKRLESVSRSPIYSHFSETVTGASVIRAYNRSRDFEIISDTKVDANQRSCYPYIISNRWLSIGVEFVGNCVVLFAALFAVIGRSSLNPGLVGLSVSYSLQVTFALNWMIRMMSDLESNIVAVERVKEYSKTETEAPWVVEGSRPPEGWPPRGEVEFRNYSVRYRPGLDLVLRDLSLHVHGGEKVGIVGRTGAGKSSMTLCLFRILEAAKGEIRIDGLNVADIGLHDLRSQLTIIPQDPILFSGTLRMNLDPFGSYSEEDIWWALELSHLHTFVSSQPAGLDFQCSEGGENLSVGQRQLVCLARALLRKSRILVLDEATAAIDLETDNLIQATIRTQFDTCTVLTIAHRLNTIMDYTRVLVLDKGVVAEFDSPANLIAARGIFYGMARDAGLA
Data set [7] is described as follows: Drug concentration at steady state in human at 1200 mg administered orally BID up to 2800 mg/day after 12 hrs. It counts as ADME. The settings on record: in vivo, po, read-out: Css.
A short description of data set [8]: Ratio of drug concentration at steady state in human at 300 mg, po QD after 24 hrs to IC50 for human BSEP overexpressed in Sf9 insect cells. It counts as ADME, organism-based. The conditions noted are these: in vivo.
The nature of data set [9]: AUC in human at 300 mg, po QD after 24 hrs. It counts as ADME, organism-based. The arrangement: time < 24 hr, dose 300 mg, route oral. The settings on record: in vivo.
The nature of data set [10]: Drug concentration at steady state in human at 300 mg, po QD after 24 hrs. Type of data set: ADME, organism-based. The settings on record: in vivo, read-out: Css.
Data set [11] can be described thus: Ratio of drug concentration at steady state in human at 300 mg, po QD after 24 hrs to IC50 for human MRP4 overexpressed in Sf9 insect cells. Type of data set: ADME, organism-based. The settings on record: in vivo.
Data set [12] can be described thus: Ratio of drug concentration at steady state in human at 100 to 200 mg, po QD after 24 hrs to IC50 for human BSEP overexpressed in Sf9 insect cells. It counts as ADME, organism-based. The conditions noted are these: in vivo.
Data set [13] in a line: AUC in human at 100 to 200 mg, po QD after 24 hrs. The settings on record: in vivo. Type of data set: ADME, organism-based.
Data set [14] in a line: Ratio of drug concentration at steady state in human at 100 to 200 mg, po QD after 24 hrs to IC50 for human MRP4 overexpressed in Sf9 insect cells. Type of data set: ADME, organism-based. The conditions noted are these: in vivo.
A short description of data set [15]: Ratio of drug concentration at steady state in human at 100 to 200 mg, po QD after 24 hrs to IC50 for human MRP2 overexpressed in Sf9 insect cells. It counts as ADME, organism-based. The settings on record: in vivo.
Data set [16] can be described thus: Drug concentration at steady state in human at 100 to 200 mg, po QD after 24 hrs. Type of data set: ADME, organism-based. The settings on record: in vivo, read-out: Css.
Data set [17] in a line: Ratio of drug concentration at steady state in human at 400 to 800 mg, po QD after 24 hrs to IC50 for human BSEP overexpressed in Sf9 insect cells. It counts as ADME, organism-based. The conditions noted are these: in vivo.
Data set [18] can be described thus: Drug concentration at steady state in human at 400 to 800 mg, po QD after 24 hrs. Type of data set: ADME, organism-based. The conditions noted are these: in vivo, read-out: Css.
A short description of data set [19]: AUC in human at 400 to 800 mg, po QD after 24 hrs. Type of data set: ADME, organism-based. The conditions noted are these: in vivo.

What is called IC50 is the concentration at which inhibition is half-maximal. As usually defined, the AUC is concentration integrated over time. On to `CC(C)CN(C[C@@H](O)[C@H](Cc1ccccc1)NC(=O)O[C@H]1CCOC1)S(=O)(=O)c1ccc(N)cc1`, for which the IC50 in data set [1] is 44.8 µM; in [3], above 133 µM; in data set [4], above 133 µM; in data set [6], above 133 µM. The Ratio in data set [2] came out at 0.097. Moreover, the AUC at 12 h in [5] came to 52.2 µM·h. Also, in [7], the concentration at 12 h worked out at 4350 nM.

`O=C(Nc1cccc2c(=O)cc(-c3nnn[nH]3)oc12)c1ccc(OCCCCc2ccccc2)cc1`: the results for the Ratio in data set [8] and in data set [11] were 0.122 and 0.134, respectively. Further, in [9], the AUC at 24 h was 8.71 µM·h. Besides, the IC50 in [1] is 2.97 µM; in [3], 2.7 µM; in data set [4], above 133 µM; in data set [6], above 133 µM. Moreover, the concentration at 24 h in data set [10] is 363 nM.

As to `CCc1oc2ccccc2c1C(=O)c1cc(Br)c(O)c(Br)c1` [BENZBROMARONE], the IC50 in data set [3] was 17 µM; in data set [4], 41.6 µM; in data set [6] it was above 133 µM. In addition, the Ratio in data set [12] came out at 0.107; in data set [14], 0.11; in [15], 0.045. For the same compound, the exposure (AUC) at 24 h in [13] came out at 45 µM·h. Further, the concentration at 24 h in data set [16] was determined as 1880 nM.

As to `CC(=O)O[C@]1(C(C)=O)CC[C@H]2[C@@H]3C=C(C)C4=CC(=O)CC[C@]4(C)[C@H]3CC[C@@]21C` [MEGESTROL ACETATE], the IC50 in [1] was 17.8 µM; in [3] it was above 133 µM; in data set [4], above 133 µM; in data set [6], above 133 µM. In addition, the Ratio in [17] came out at 0.084. For the same compound, in [18], the concentration at 24 h turned out to be 1490 nM. The AUC at 24 h in [19] turned out to be 35.8 µM·h.
